Data on 6 compounds can be found in ChEMBL document CHEMBL3632622, “Synthesis and biological evaluation of novel N-phenyl ureidobenzenesulfonate derivatives as potential anticancer agents. Part 2. Modulation of the ring B” (Eur J Med Chem, 2015).

Active and inactive are the calls of the source. The rule behind the calls is not given here.

For one assay, the system named is M21. The assay is described as follows: Cell cycle arrest in human M21 cells assessed as accumulation at subG1 phase at 39 uM after 24 hrs by DAPI staining-based flow cytometry (reference value: 1.5%). Type of assay: functional.
Conditions: not given
Background: A flow cytometer gives signals particle by particle.
With `CCc1cccc(OS(=O)(=O)c2ccc(NC(=O)NCCCl)cc2)c1`, the Activity is 5%.
Still for that read-out and setting: the value for `Cc1cc(OS(=O)(=O)c2ccc(NC(=O)NCCCl)cc2)cc(C)c1C` was 8.7%.

The next assay has as its system M21. In words: Cell cycle arrest in human M21 cells assessed as accumulation at G0/G1 phase at 1 uM after 24 hrs by DAPI staining-based flow cytometry (reference value: 65.1%).
Conditions: not given
Type of assay: functional.
Turning to `CC(C)c1ccccc1OS(=O)(=O)c1ccc(NC(=O)NCCCl)cc1`, the Activity came to 23.6%.
Still for that read-out and setting: the result for `O=C(NCCCl)Nc1ccc(S(=O)(=O)Oc2ccccc2I)cc1` reads 36.4%.

The test system of a further assay is M21. The assay is described as follows: Cell cycle arrest in human M21 cells assessed as accumulation at S phase at 4.1 uM after 24 hrs by DAPI staining-based flow cytometry (reference value: 17.4%). Format: functional.
Conditions: not given
For `CCc1ccccc1OS(=O)(=O)c1ccc(NC(=O)NCCCl)cc1`, the Activity is reported as 44.1%.

A further assay relates to M21. The assay is described as follows: Cell cycle arrest in human M21 cells assessed as accumulation at G2/M phase at 34 uM after 24 hrs by DAPI staining-based flow cytometry (reference value: 16%). Type of assay: functional.
Conditions: not given
For `O=C(NCCCl)Nc1ccc(S(=O)(=O)Oc2ccc(Cl)cc2)cc1`, the Activity is given as 65.8%.

The next assay deals with M21. In words: Antiproliferative activity against human M21 cells assessed as growth inhibition incubated for 48 hrs by sulforhodamine B assay. Format: functional, cell-based. The conditions noted are these: M21, 48 h.
As for `CC(C)c1ccccc1OS(=O)(=O)c1ccc(NC(=O)NCCCl)cc1`, the IC50 (commonly the concentration needed to halve the response being measured) stood at 1.5 µM.
The same measure, in the same setting: the result for `O=C(NCCCl)Nc1ccc(S(=O)(=O)Oc2ccccc2I)cc1` reads 1.9 µM; that for `O=C(NCCCl)Nc1ccc(S(=O)(=O)Oc2ccc(Cl)cc2)cc1`, 6 µM.
For the compound `CCc1ccccc1OS(=O)(=O)c1ccc(NC(=O)NCCCl)cc1`, the IC50 was determined as 2.1 µM.
Same read-out and setting: the result for `CCc1cccc(OS(=O)(=O)c2ccc(NC(=O)NCCCl)cc2)c1` reads 6 µM; that for `Cc1cc(OS(=O)(=O)c2ccc(NC(=O)NCCCl)cc2)cc(C)c1C`, 6.5 µM.

Tested on in a further assay: not listed separately
In words: Antiproliferative activity against human HT1080 cells assessed as growth inhibition incubated for 48 hrs by sulforhodamine B assay. Type of assay: functional, cell-based, HT-1080. The note with it: Homo sapiens, HT-1080, 48 h; read-out: IC50. (In SRB staining, fixed cells bind dye roughly in proportion to their protein.)
In the case of `CC(C)c1ccccc1OS(=O)(=O)c1ccc(NC(=O)NCCCl)cc1`, the IC50 is 0.84 µM.
Regarding `O=C(NCCCl)Nc1ccc(S(=O)(=O)Oc2ccccc2I)cc1`, the IC50 worked out at 1.2 µM.
The same measure, in the same setting: the value for `O=C(NCCCl)Nc1ccc(S(=O)(=O)Oc2ccc(Cl)cc2)cc1` was 5.9 µM; that for `CCc1ccccc1OS(=O)(=O)c1ccc(NC(=O)NCCCl)cc1` was 1.2 µM.
For the compound `CCc1cccc(OS(=O)(=O)c2ccc(NC(=O)NCCCl)cc2)c1`, the IC50 came to 3.8 µM.
For the compound `Cc1cc(OS(=O)(=O)c2ccc(NC(=O)NCCCl)cc2)cc(C)c1C`, the IC50 amounted to 9 µM.

The test system of the next assay is M21. In words: Cell cycle arrest in human M21 cells assessed as accumulation at S phase at 39 uM after 24 hrs by DAPI staining-based flow cytometry (reference value: 17.4%). Type of assay: functional.
Conditions: not given
For the compound `CCc1cccc(OS(=O)(=O)c2ccc(NC(=O)NCCCl)cc2)c1`, the Activity is 11.3%.
On the same count and under the same terms, the value for `Cc1cc(OS(=O)(=O)c2ccc(NC(=O)NCCCl)cc2)cc(C)c1C` was 14.8%.

Another assay relates to M21. In words: Cell cycle arrest in human M21 cells assessed as accumulation at G2/M phase at 39 uM after 24 hrs by DAPI staining-based flow cytometry (reference value: 16%). Format: functional.
Conditions: not given
On to `CCc1cccc(OS(=O)(=O)c2ccc(NC(=O)NCCCl)cc2)c1`, for which the Activity is recorded as 68.5%.
Consider `Cc1cc(OS(=O)(=O)c2ccc(NC(=O)NCCCl)cc2)cc(C)c1C`, for which the Activity is 65.1%.

A further assay has as its system M21. In words: Cell cycle arrest in human M21 cells assessed as accumulation at subG1 phase at 1 uM after 24 hrs by DAPI staining-based flow cytometry (reference value: 1.5%). Type of assay: functional.
Conditions: not given
`CC(C)c1ccccc1OS(=O)(=O)c1ccc(NC(=O)NCCCl)cc1`: the Activity worked out at 1.2%.
Still for that read-out and setting: the result for `O=C(NCCCl)Nc1ccc(S(=O)(=O)Oc2ccccc2I)cc1` reads 1.7%.

In the next assay the test system is M21. In words: Cell cycle arrest in human M21 cells assessed as accumulation at G0/G1 phase at 34 uM after 24 hrs by DAPI staining-based flow cytometry (reference value: 65.1%). Type of assay: functional.
Conditions: not given
`O=C(NCCCl)Nc1ccc(S(=O)(=O)Oc2ccc(Cl)cc2)cc1`: the Activity was 19%.

A further assay has as its system M21. In words: Cell cycle arrest in human M21 cells assessed as accumulation at subG1 phase at 4.1 uM after 24 hrs by DAPI staining-based flow cytometry (reference value: 1.5%). Format: functional.
Conditions: not given
For the compound `CCc1ccccc1OS(=O)(=O)c1ccc(NC(=O)NCCCl)cc1`, the Activity is 2%.

For another assay, the system named is M21. In words: Cell cycle arrest in human M21 cells assessed as accumulation at G0/G1 phase at 39 uM after 24 hrs by DAPI staining-based flow cytometry (reference value: 65.1%). Type of assay: functional.
Conditions: not given
Take `CCc1cccc(OS(=O)(=O)c2ccc(NC(=O)NCCCl)cc2)c1`: the Activity turned out to be 15.2%.
Still for that read-out and setting: the result for `Cc1cc(OS(=O)(=O)c2ccc(NC(=O)NCCCl)cc2)cc(C)c1C` reads 11.4%.

Another assay has as its system M21. The assay is described as follows: Induction DNA DSBs in human M21 cells assessed as increase in gamma H2AX foci at 1 uM incubated for 24 hrs by DAPI staining based immunocytochemistry. Type of assay: cell-based.
Conditions: not given
Consider `CC(C)c1ccccc1OS(=O)(=O)c1ccc(NC(=O)NCCCl)cc1`, for which the outcome was Active.
As for `O=C(NCCCl)Nc1ccc(S(=O)(=O)Oc2ccccc2I)cc1`, the result was Active.

Another assay deals with M21. The assay is described as follows: Cell cycle arrest in human M21 cells assessed as accumulation at S phase at 34 uM after 24 hrs by DAPI staining-based flow cytometry (reference value: 17.4%). Format: functional.
Conditions: not given
On to `O=C(NCCCl)Nc1ccc(S(=O)(=O)Oc2ccc(Cl)cc2)cc1`, for which the Activity is reported as 6.6%.

The test system of a further assay is M21. In words: Cell cycle arrest in human M21 cells assessed as accumulation at G2/M phase at 4.1 uM after 24 hrs by DAPI staining-based flow cytometry (reference value: 16%). Type of assay: functional.
Conditions: not given
For `CCc1ccccc1OS(=O)(=O)c1ccc(NC(=O)NCCCl)cc1`, the Activity is listed as 19.2%.

In another assay the test system is M21. In words: Cell cycle arrest in human M21 cells assessed as accumulation at subG1 phase at 34 uM after 24 hrs by DAPI staining-based flow cytometry (reference value: 1.5%). Type of assay: functional.
Conditions: not given
As for `O=C(NCCCl)Nc1ccc(S(=O)(=O)Oc2ccc(Cl)cc2)cc1`, the Activity worked out at 8.6%.

In the next assay the test system is M21. The assay is described as follows: Cell cycle arrest in human M21 cells assessed as accumulation at G0/G1 phase at 4.1 uM after 24 hrs by DAPI staining-based flow cytometry (reference value: 65.1%).
Conditions: not given
Type of assay: functional.
For the compound `CCc1ccccc1OS(=O)(=O)c1ccc(NC(=O)NCCCl)cc1`, the Activity was determined as 34.7%.

Another assay relates to M21. The assay is described as follows: Cell cycle arrest in human M21 cells assessed as accumulation at S phase at 1 uM after 24 hrs by DAPI staining-based flow cytometry (reference value: 17.4%). Format: functional.
Conditions: not given
On to `CC(C)c1ccccc1OS(=O)(=O)c1ccc(NC(=O)NCCCl)cc1`, for which the Activity turned out to be 51.8%.
On the same count and under the same terms, the value for `O=C(NCCCl)Nc1ccc(S(=O)(=O)Oc2ccccc2I)cc1` was 46.9%.

For a further assay, the system named is HT-29. In words: Antiproliferative activity against human HT-29 cells assessed as growth inhibition incubated for 48 hrs by sulforhodamine B assay. Type of assay: functional, cell-based. The conditions noted are these: HT-29, 48 h.
In the case of `CC(C)c1ccccc1OS(=O)(=O)c1ccc(NC(=O)NCCCl)cc1`, the IC50 worked out at 1.5 µM.
Same read-out and setting: the value for `O=C(NCCCl)Nc1ccc(S(=O)(=O)Oc2ccccc2I)cc1` was 1.5 µM; that for `O=C(NCCCl)Nc1ccc(S(=O)(=O)Oc2ccc(Cl)cc2)cc1` was 6.3 µM.
As for `CCc1ccccc1OS(=O)(=O)c1ccc(NC(=O)NCCCl)cc1`, the IC50 worked out at 3.3 µM.
As for `CCc1cccc(OS(=O)(=O)c2ccc(NC(=O)NCCCl)cc2)c1`, the IC50 was found to be 5.6 µM.
Still for that read-out and setting: the result for `Cc1cc(OS(=O)(=O)c2ccc(NC(=O)NCCCl)cc2)cc(C)c1C` reads 6.6 µM.

A further assay has as its system MCF7. The assay is described as follows: Antiproliferative activity against human MCF7 cells assessed as growth inhibition incubated for 48 hrs by sulforhodamine B assay. Type of assay: functional, cell-based. The conditions noted are these: MCF7, 48 h.
Regarding `CC(C)c1ccccc1OS(=O)(=O)c1ccc(NC(=O)NCCCl)cc1`, the IC50 was determined as 1.8 µM.
Same read-out and setting: the value for `O=C(NCCCl)Nc1ccc(S(=O)(=O)Oc2ccccc2I)cc1` was 1.51 µM; that for `O=C(NCCCl)Nc1ccc(S(=O)(=O)Oc2ccc(Cl)cc2)cc1` was 7.3 µM.
Still for that read-out and setting: the result for `CCc1ccccc1OS(=O)(=O)c1ccc(NC(=O)NCCCl)cc1` reads 4.1 µM; that for `CCc1cccc(OS(=O)(=O)c2ccc(NC(=O)NCCCl)cc2)c1`, 7.1 µM.
The same measure, in the same setting: the result for `Cc1cc(OS(=O)(=O)c2ccc(NC(=O)NCCCl)cc2)cc(C)c1C` reads 9.4 µM.

A further assay deals with M21. The assay is described as follows: Cell cycle arrest in human M21 cells assessed as accumulation at G2/M phase at 1 uM after 24 hrs by DAPI staining-based flow cytometry (reference value: 16%). Type of assay: functional.
Conditions: not given
As for `CC(C)c1ccccc1OS(=O)(=O)c1ccc(NC(=O)NCCCl)cc1`, the Activity is 23.4%.
Same read-out and setting: the result for `O=C(NCCCl)Nc1ccc(S(=O)(=O)Oc2ccccc2I)cc1` reads 15%.
